Earlier results in patent US5712297A, “Piperdine compounds and their preparation and use” (Novo Nordisk A/S, priority 1989, dated 1998).
Read-outs that look alike come from different tables or passages of the source.

Tests used:
muscarinic receptors [1] = conditions: known; in words; cited from earlier work
muscarinic receptors [2] = conditions: in words; cited from earlier work
[3] = in words; cited from earlier work
[4] = in words; cited from earlier work; remark: listed apart in the source
[5] = target: muscarinic receptors in the CNS; conditions: cited from earlier work

Structure (SMILES)	muscarinic agonist or antagonist activity (muscarinic receptors [1])	separation between central and peripheral muscarinic effects (muscarinic receptors [2])	biological half life [3]	toxicity [4]	Kd ([5]; high affinity site, read-out: affinity of 3H-Oxo, first (high affinity) site) [nM]	Kd ([5]; medium affinity site, read-out: affinity of 3H-Oxo, second (medium affinity) site) [nM]	Kd ([5]; third site, not determined under the present experimental conditions, read-out: affinity of 3H-Oxo, third site) [nM]
CC(=O)OC1CN2CCC1CC2 (centres unmarked) [3-acetoxy-quinuclidine]	muscarinic agonist	the same as indicated for arecoline	the same as indicated for arecoline	the same as indicated for arecoline	–	–	–
COC(=O)C1=CCCN(C)C1 [arecoline, methyl 1-methyl-1,2,5,6-tetrahydropyridine-3-carboxylate]	cholinergic agonist	small separation between central and peripheral muscarinic effects	very short biological half life	rather toxic compound	–	–	–
C[N+](C)(C)CC#CCN1CCCC1=O [Compound 3H-Oxo, ^3 H-Oxotremorine-M]	–	–	–	–	1	20	3000
